One test has as its system Adult male Wistar rats. In words: In vivo feeding after ICV injection, rodent chow consumed in 2 hours. More on the design: species or system rat. The following applies: for Feeding (g/2 h): rats, ICV, 1-6 nmoles peptide, chow consumed in 2 hours, saline <3 g/2 hours.
Another test has as its target Rat Y4/PP1 (clone) (Rattus norvegicus, UniProt Q63447). In words: Rat Y4/PP1 [125I]PP binding assay.

The text below walks through data of patent US5919901A (priority 1996, dated 1999).

Sequence of Rat Y4/PP1 (clone) (Q63447 whole entry): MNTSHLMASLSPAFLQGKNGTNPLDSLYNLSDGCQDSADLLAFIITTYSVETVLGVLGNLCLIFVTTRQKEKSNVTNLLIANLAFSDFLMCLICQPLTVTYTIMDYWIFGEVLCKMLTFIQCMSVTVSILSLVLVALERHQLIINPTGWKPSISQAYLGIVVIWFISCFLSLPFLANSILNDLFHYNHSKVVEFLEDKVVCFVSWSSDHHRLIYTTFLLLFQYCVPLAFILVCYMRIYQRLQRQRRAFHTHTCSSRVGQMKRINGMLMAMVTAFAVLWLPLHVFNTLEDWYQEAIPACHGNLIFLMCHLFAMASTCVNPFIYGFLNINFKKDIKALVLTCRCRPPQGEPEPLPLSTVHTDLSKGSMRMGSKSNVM
Description for Adult male Wistar rats: Adult male Wistar rats were surgically implanted with a chronic intracerebral ventricular (ICV) cannula (Plastic Products, Roanoke, Va.) using a stereotaxic instrument. Several days after the surgery, 1-6 nmoles of each peptide (or saline) was injected into the lateral ventricle of 4-12 rats in a volume of 5-10 μl The quantity of rodent chow consumed in a 2 hour period was measured.

With `CC[C@H](C)[C@H](NC(=O)[C@H](Cc1ccc(O)cc1)NC(=O)[C@H](CCCNC(=N)N)NC(=O)[C@H](CCCNC(=N)N)NC(=O)[C@H](CC(C)C)NC(=O)[C@H](CC(=O)O)NC(=O)[C@H](C)NC(=O)[C@H](C)NC(=O)[C@H](Cc1ccc(O)cc1)NC(=O)[C@H](CCC(N)=O)NC(=O)[C@H](C)NC(=O)[C@H](CCSC)NC(=O)[C@H](CCC(N)=O)NC(=O)[C@H](CCC(=O)O)NC(=O)[C@@H]1CCCN1C(=O)[C@@H](NC(=O)[C@H](C)NC(=O)[C@H](CC(N)=O)NC(=O)[C@H](CC(=O)O)NC(=O)CNC(=O)[C@@H]1CCCN1C(=O)[C@H](Cc1ccc(O)cc1)NC(=O)[C@@H](NC(=O)[C@@H]1CCCN1C(=O)[C@H](CCC(=O)O)NC(=O)[C@H](CC(C)C)NC(=O)[C@@H]1CCCN1C(=O)[C@H](C)N)C(C)C)[C@@H](C)O)C(=O)N[C@@H](CC(N)=O)C(=O)N[C@@H](CCSC)C(=O)N[C@@H](CC(C)C)C(=O)N[C@H](C(=O)N[C@@H](CCCNC(=N)N)C(=O)N1CCC[C@H]1C(=O)N[C@@H](CCCNC(=N)N)C(=O)N[C@@H](Cc1ccc(O)cc1)C(N)=O)[C@@H](C)O` [hPP, pancreatic polypeptide], in the test on Adult male Wistar rats, the “Feeding (g/2 h)” value was over 5 g/2 h.

With `CC[C@H](C)[C@H](NC(=O)[C@H](Cc1ccc(O)cc1)NC(=O)[C@H](Cc1c[nH]cn1)NC(=O)[C@H](CCCNC(=N)N)NC(=O)[C@H](CC(C)C)NC(=O)[C@H](C)NC(=O)[C@@H](N)CO)C(=O)N[C@@H](CC(N)=O)C(=O)N[C@@H](CC(C)C)C(=O)N[C@H](C(=O)N[C@H](C(=O)N[C@@H](CCCNC(=N)N)C(=O)N[C@@H](CCC(N)=O)C(=O)N[C@@H](CCCNC(=N)N)C(=O)N[C@@H](Cc1ccc(O)cc1)C(N)=O)[C@@H](C)O)[C@@H](C)CC` [r/h(22-36)NPY, (22-36)NPY], the “Feeding (g/2 h)” value in the test on Adult male Wistar rats is on record as under 3 g/2 h.

As for `CC[C@H](C)[C@H](NC(=O)[C@H](Cc1ccc(O)cc1)NC(=O)[C@@H](N)Cc1c[nH]cn1)C(=O)N[C@@H](CC(N)=O)C(=O)N[C@@H](CC(C)C)C(=O)N[C@H](C(=O)N[C@H](C(=O)N[C@@H](CCCNC(=N)N)C(=O)N[C@@H](CCC(N)=O)C(=O)N[C@@H](CCCNC(=N)N)C(=O)N[C@@H](Cc1ccc(O)cc1)C(N)=O)[C@@H](C)O)[C@@H](C)CC` [r/h(26-36)NPY, (26-36)NPY], the “Feeding (g/2 h)” value with Adult male Wistar rats is recorded as under 3 g/2 h.

`CC[C@H](C)[C@H](NC(=O)[C@H](Cc1ccc(O)cc1)NC(=O)[C@H](CCCNC(=N)N)NC(=O)[C@H](CCCNC(=N)N)NC(=O)[C@H](CC(C)C)NC(=O)[C@H](CC(=O)O)NC(=O)[C@H](C)NC(=O)[C@H](C)NC(=O)[C@H](Cc1ccc(O)cc1)NC(=O)[C@H](CCC(N)=O)NC(=O)[C@H](C)NC(=O)[C@H](CCSC)NC(=O)[C@H](CCC(N)=O)NC(=O)[C@H](CCC(=O)O)NC(=O)[C@@H]1CCCN1C(=O)[C@@H](NC(=O)[C@H](C)NC(=O)[C@H](CC(N)=O)NC(=O)[C@H](CC(=O)O)NC(=O)CNC(=O)[C@@H]1CCCN1C(=O)[C@H](Cc1ccc(O)cc1)NC(=O)[C@@H](NC(=O)[C@@H]1CCCN1C(=O)[C@H](CCC(=O)O)NC(=O)[C@H](CC(C)C)NC(=O)[C@@H]1CCCN1C(=O)[C@H](C)N)C(C)C)[C@@H](C)O)C(=O)N[C@@H](CC(N)=O)C(=O)N[C@@H](CCSC)C(=O)N[C@@H](CC(C)C)C(=O)N[C@H](C(=O)N[C@@H](CCCNC(=N)N)C(=O)N1CCC[C@H]1C(=O)N[C@@H](CCCNC(=N)N)C(=O)N[C@@H](Cc1ccc(O)cc1)C(N)=O)[C@@H](C)O` [rPP, pancreatic polypeptide]: on Rat Y4/PP1 (clone), the “affinity for the rat Y4/PP1 receptor” value is “very high affinity”. For the same compound, in the test with Adult male Wistar rats (administered ICV to rats), the “feeding response in rats” value is “does not induce much feeding”. Further, the “Feeding (g/2 h)” value with Adult male Wistar rats is given as under 3 g/2 h.
